According to ChEMBL document CHEMBL1131488, “Dihydropyrancarboxamides related to zanamivir: a new series of inhibitors of influenza virus sialidases. 1. Discovery, synthesis, biological activity, and structure-activity relationships of 4-guanidino- and 4-amino-4H-pyran-6-carboxamides” (J Med Chem, 1998):

Experiments:
[1] = target: Neuraminidase (Influenza A virus (A/Puerto Rico/8/1934(H1N1)), UniProt P03468); assay: Inhibition of influenza A virus sialidase activity
Neuraminidase [2] = target: T1, Neuraminidase (Influenza B virus (strain B/Lee/1940), UniProt P03474); assay: Inhibition of influenza B virus sialidase activity
Neuraminidase [3] = target: T1, Neuraminidase
[4] = target: Neuraminidase (Influenza A virus (A/Puerto Rico/8/1934(H1N1)), UniProt P03468); assay: Inhibition of sialidase (Flu A, 5 nM)
[5] = target: Neuraminidase (Influenza A virus (A/Puerto Rico/8/1934(H1N1)), UniProt P03468)
[6] = target: Neuraminidase (Influenza A virus (A/Puerto Rico/8/1934(H1N1)), UniProt P03468); remark: listed apart in the source
[7] = target: Neuraminidase (Influenza A virus (A/Puerto Rico/8/1934(H1N1)), UniProt P03468); remark: listed apart in the source
[8] = target: Neuraminidase (Influenza A virus (A/Puerto Rico/8/1934(H1N1)), UniProt P03468); remark: listed apart in the source
Mus musculus [9] = assay: Compound was tested for concentration of intranasally administered drug (10 mg/kg) which reduces virus titer by 90%; type: functional; settings: inhaled or nasal
[10] = t1/2, plasma elimination half life, the time taken for the plasma concentrations to fall by one half, once distribution is complete at a dose of 50 mg/kg; type: ADME, organism-based; set-up: dose 50 mg/kg
Mus musculus [11] = assay: Compound was tested for in vivo efficacy in mouse model of influenza A virus A/Singapore/1/57 at dose of 50 mg/kg.; type: functional
[12] = Vss, volume of distribution at steady state at a dose of 50 mg/kg; type: ADME, organism-based; set-up: dose 50 mg/kg; settings: in vivo, read-out: Vss
Mus musculus [13] = assay: Compound was tested for in vivo efficacy in mouse model of influenza A virus A/Singapore/1/57 at dose of 10 mg/kg.; type: functional
[14] = Clp, plasma clearance at a dose of 50 mg/kg; type: ADME, organism-based; set-up: dose 50 mg/kg; settings: read-out: Clp
Mus musculus [15] = assay: Compound was tested for in vivo efficacy in mouse model of influenza A virus A/Singapore/1/57 at dose of 1 mg/kg.; type: functional
Mus musculus [16] = assay: Compound was tested for in vivo efficacy in mouse model of influenza A virus A/Singapore/1/57 at dose of 50 mg/kg (ip); type: functional
Mus musculus [17] = assay: Compound was tested for in vivo efficacy in mouse model of influenza A virus A/Singapore/1/57 at dose of 0.5 mg/kg (in); type: functional
Mus musculus [18] = assay: Compound was tested for concentration of intranasally administered drug (0.5 mg/kg) which reduces virus titer by 90%; type: functional; settings: inhaled or nasal
Neuraminidase [19] = target: T1, Neuraminidase; assay: Inhibitory activity against sialidase (influenza B virus by plaque reduction assay)

T1 sequence (P03474 whole entry): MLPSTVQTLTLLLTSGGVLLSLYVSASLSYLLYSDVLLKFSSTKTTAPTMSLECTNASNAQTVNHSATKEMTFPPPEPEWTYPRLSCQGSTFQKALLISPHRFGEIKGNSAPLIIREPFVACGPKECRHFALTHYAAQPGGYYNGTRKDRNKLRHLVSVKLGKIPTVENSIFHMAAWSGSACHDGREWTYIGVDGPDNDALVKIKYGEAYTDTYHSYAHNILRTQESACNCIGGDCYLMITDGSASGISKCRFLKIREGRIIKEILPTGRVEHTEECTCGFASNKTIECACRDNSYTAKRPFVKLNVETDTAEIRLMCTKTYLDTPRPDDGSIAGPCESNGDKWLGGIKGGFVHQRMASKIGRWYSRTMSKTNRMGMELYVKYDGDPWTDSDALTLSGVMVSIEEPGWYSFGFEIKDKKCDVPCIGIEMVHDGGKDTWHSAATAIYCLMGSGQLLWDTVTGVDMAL
Sequence of Neuraminidase (Influenza A virus (A/Puerto Rico/8/1934(H1N1)), UniProt P03468) (P03468 whole entry): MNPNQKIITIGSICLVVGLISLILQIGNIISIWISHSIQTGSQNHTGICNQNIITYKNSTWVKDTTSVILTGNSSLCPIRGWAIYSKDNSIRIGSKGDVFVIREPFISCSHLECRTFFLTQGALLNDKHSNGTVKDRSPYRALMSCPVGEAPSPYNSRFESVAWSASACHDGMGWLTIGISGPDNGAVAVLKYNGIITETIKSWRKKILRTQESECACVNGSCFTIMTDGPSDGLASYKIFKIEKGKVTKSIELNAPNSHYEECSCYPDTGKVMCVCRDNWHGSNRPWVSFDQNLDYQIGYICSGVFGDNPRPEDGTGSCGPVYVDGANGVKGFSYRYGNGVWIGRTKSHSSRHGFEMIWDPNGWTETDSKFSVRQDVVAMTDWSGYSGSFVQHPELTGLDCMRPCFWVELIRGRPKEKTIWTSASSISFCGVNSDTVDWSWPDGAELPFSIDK

CCCN(CCc1ccc(C(C)C)cc1)C(=O)[C@@H]1OC(C(=O)O)=C[C@H](N)[C@H]1NC(C)=O
IC50 [1]: 12 nM | IC50 (Neuraminidase [2]): 6200 nM

CC(=O)N[C@@H]1[C@@H](N)C=C(C(=O)O)O[C@H]1C(=O)N1CCCC1C (some centres not stated)
IC50 [1]: 310 nM | IC50 (Neuraminidase [2]): 210000 nM

CCCN(CCc1cccc(OC)c1)C(=O)[C@@H]1OC(C(=O)O)=C[C@H](N)[C@H]1NC(C)=O
IC50 [1]: 5 nM | IC50 (Neuraminidase [2]): 3200 nM

CCCN(CCc1ccc(-c2ccccc2)cc1)C(=O)[C@@H]1OC(C(=O)O)=C[C@H](N)[C@H]1NC(C)=O
IC50 [1]: 2 nM

CCCN(CCCc1ccccc1)C(=O)[C@@H]1OC(C(=O)O)=C[C@H](N)[C@H]1NC(C)=O
IC50 [1]: 18 nM | IC50 (Neuraminidase [2]): 46000 nM

CC(=O)N[C@@H]1[C@@H](N)C=C(C(=O)O)O[C@H]1C(=O)NC1CCCCC1
IC50 (Neuraminidase [3]): > 450000 nM | IC50 [4]: 19000 nM

CC(=O)N[C@@H]1[C@@H](N)C=C(C(=O)O)O[C@H]1C(=O)NCC(=O)O
IC50 [4]: > 480000 nM

CC(=O)N[C@@H]1[C@@H](N)C=C(C(=O)O)O[C@H]1C(=O)N(CCc1ccccc1)CC(=O)O
IC50 [1]: 130000 nM | IC50 (Neuraminidase [2]): 75000 nM

CCN(CC)C(=O)[C@@H]1OC(C(=O)O)=C[C@H](N)[C@H]1NC(C)=O
IC50 [5]: 5 nM | IC50 [6]: 20 nM | IC50 [7]: 85 nM | IC50 [8]: 40 nM | IC50 (Neuraminidase [2]): 360 nM

CC(=O)N[C@@H]1[C@@H](NC(=N)N)C=C(C(=O)O)O[C@H]1C(=O)NCCN
IC50 [4]: 20000 nM

CCCN(CCc1ccc(Cc2ccccc2)cc1)C(=O)[C@@H]1OC(C(=O)O)=C[C@H](N)[C@H]1NC(C)=O
IC50 [1]: 270 nM | IC50 (Neuraminidase [2]): 5200 nM

CCCN(CCc1cccc(-c2ccccc2)c1)C(=O)[C@@H]1OC(C(=O)O)=C[C@H](N)[C@H]1NC(C)=O
IC50 [1]: 2 nM | IC50 (Neuraminidase [2]): 4500 nM

CCCN(C)C(=O)[C@@H]1OC(C(=O)O)=C[C@H](N)[C@H]1NC(C)=O
IC50 [5]: 180 nM | IC50 [6]: 110 nM | IC50 [7]: 4700 nM | IC50 [8]: 3700 nM

CCCN(C)C(=O)[C@@H]1OC(C(=O)O)=C[C@H](NC(=N)N)[C@H]1NC(C)=O
IC50 [5]: 3 nM | ED90 (Mus musculus [9]): < 1 mg/kg | half-life [10]: 12.6 min | Reduction in virus titer (Mus musculus [11]): 74.5% | Vd [12]: 0.3 L/kg | IC50 [6]: 28 nM | IC50 [7]: 26 nM | IC50 [8]: 5.6 nM | Reduction in virus titer (Mus musculus [13]): 99.9% | clearance [14]: 17.8 mL/min/kg | Reduction in virus titer (Mus musculus [15]): 95%

CCCN(Cc1ccccc1)C(=O)[C@@H]1OC(C(=O)O)=C[C@H](N)[C@H]1NC(C)=O
IC50 [1]: 4200 nM | IC50 (Neuraminidase [2]): 180000 nM

CC(=O)N[C@@H]1[C@@H](N)C=C(C(=O)O)O[C@H]1C(=O)N(CCc1ccccc1)C1CC1
IC50 [1]: 46 nM | IC50 (Neuraminidase [2]): 36000 nM

CCCN(CCC)C(=O)[C@@H]1OC(C(=O)O)=C[C@H](N)[C@H]1NC(C)=O
IC50 [5]: 3 nM | ED90 (Mus musculus [9]): 2.1 mg/kg | half-life [10]: 21 min | Vd [12]: 0.4 L/kg | IC50 [6]: 20 nM | IC50 [7]: 30 nM | IC50 [8]: 8 nM | Reduction in virus titer (Mus musculus [13]): 99.84% | clearance [14]: 12.5 mL/min/kg | Reduction in virus titer (Mus musculus [15]): 82%

CC(=O)N[C@@H]1[C@@H](N)C=C(C(=O)O)O[C@H]1C(=O)N(CCO)CCc1ccccc1
IC50 [1]: 12 nM | IC50 (Neuraminidase [2]): 100000 nM

CC(=O)N[C@H]1[C@H]([C@H](O)[C@H](O)CO)OC(C(=O)O)=C[C@@H]1NC(=N)N [ZANAMIVIR]
Reduction in virus titer (Mus musculus [16]): 96.2% | half-life [10]: 9.6 min | Vd [12]: 0.3 L/kg | clearance [14]: 24.9 mL/min/kg | Reduction in virus titer (Mus musculus [17]): 99.5% | ED90 (Mus musculus [18]): 0.03 mg/kg

CCCN(CCc1cccc(O)c1)C(=O)[C@@H]1OC(C(=O)O)=C[C@H](N)[C@H]1NC(C)=O
IC50 [1]: 3 nM | IC50 (Neuraminidase [2]): 2300 nM

CCCN(CCc1ccccc1OC)C(=O)[C@@H]1OC(C(=O)O)=C[C@H](N)[C@H]1NC(C)=O
IC50 [1]: 9 nM | IC50 (Neuraminidase [2]): 12000 nM

CC(=O)N[C@@H]1[C@@H](N)C=C(C(=O)O)O[C@H]1C(=O)N1CCCC1
IC50 (Neuraminidase [19]): > 100 µg/mL | IC50 [1]: 2900 nM
